The test system of data set [1] is lignée tumorale leucémie L 1210. Briefly: In vitro cytotoxic activity on L 1210 leukemia cell culture (inhibition of cell proliferation). It is filed as cell-based. The following applies: Mus musculus, L1210; L 1210 culture in exponential growth, 37°C, after 48 hours of contact; read-out: ID 50 (the source's name). As to the method: 1) In vitro : (PAOLETTI et al., Chem. Biol. Interaction, 1979, 25, 45-58).
L'activité cytotoxique des composés de l'invention a été évaluée par des essais in vitro. Ces essais consistent à ajouter des concentrations croissantes du composé à tester à une culture cellulaire de la lignée tumorale leucémie L 1210 en phase exponentielle de croissance. Les cellules sont incubées à 37°C dans une étuve à CO₂ et comptées toutes les 24 heures. Le calcul de l'ID₅₀ (concentration du produit exprimée en micromole 1⁻¹ qui inhibe la prolifération cellulaire à 50 p. 100) est effectuée après 48 heures de contact. Ainsi déterminées les ID₅₀ des composés de l'invention sont rassemblées dans le tableau ci-après.

A further data set deals with leucémie P 388. The experiment in a line: animal or person. The following applies: for Nombre de survivants: survivors at J 40; for Variation pondérale en g: in vivo, ip. In kind it is in vivo, souris hybrides CDF 1. From the text: (§1) L'activité antitumorale a été testée in vivo sur différentes tumeurs selon le protocole général suivant:
(§2) Toutes les souris mâles ou femelles sont inoculées par voie intrapéritonéale au jour Jo avec une quantité déterminée de cellules tumorales viables, variable selon la tumeur.
(§3) Elles sont ensuite réparties en différents lots. Chaque lot correspondant aux animaux traités par le produit à tester à une dose déterminée est composé de 10 souris. Dans ce cas, le produit à tester est dissous dans l'eau distillée et il est administré, pendant n jours (J₁-Jn) variables selon le protocole choisi, par voie intrapéritonéale à raison de 0,1 ml par 10 g de poids des souris traitées, les doses du produit administré étant précisées dans les tableaux ci-dessous.
(§4) Le lot "contrôle négatif", correspondant aux animaux qui ne sont pas traités par un produit, comprend 2 √N animaux, N étant égal au nombre total de souris traitées par un produit.
(§5) Enfin, tous les essais sont conduits parallèlement à l'étude d'un lot appelé "contrôle positif" de 10 animaux qui est traité par une molécule active, variable selon le protocole choisi, dans les mêmes conditions que les lots traités par le produit à tester, afin de valider l'essai.
(§6) L'activité antitumorale est évaluée en considé-rant l'augmentation du temps de survie des animaux traités par rapport à celui des animaux du lot "contrôle négatif" selon la formule : [formula]
(§7) Un composé est considéré comme étant actif lorsque la valeur du rapport T/C est égale ou supérieure à 125 % selon le protocole retenu. Il est toxique lorsque cette valeur est égale ou inférieure à 85 %. Le produit est également considéré comme toxique lorsque la variation pondérale, exprimée en grammes et calculée par la formule : Poids moyen du lot mesuré au jour 5 -poids moyen du même lot au jour 1 est égale ou inférieure à - 4 g.
a) Test de la leucémie P 388 (GERAN et al., Cancer Chemother, 1972, 2, 07-57).
Les essais sont effectués avec des souris hybrides CDF 1 inoculées par voie intrapéritonéale avec 10⁶ cellules leucémiques de la lignée P 388. Le composé à tester est administré pendant 5 jours (J1-J5). Le contrôle positif du test est le 5-fluorouracile qui est administré dans les mêmes conditions. Le nombre d'animaux survivants est évalué au jour J 40. Un composé est considéré comme étant actif lorsque le rapport T/C est supérieur à 127 %.

The test system of another data set is leucémie L 1210. Briefly: In vivo antitumour activity, L 1210 leukemia test. The arrangement: species or system souris hybrides CDF₁. The following applies: for Nombre de survivants: survivors at J 30.
From the text: as §1, §2, §3, §4, §5, §6, §7
b) Test de la leucémie L 1210 (GERAN et al., Cancer Chemother, 1972, 2, 07-57).
Les essais sont effectués avec des souris hybrides CDF₁ inoculées avec 10⁵ cellules leucémiques de la lignée L 1210. Le composé à tester est administré pendant 5 jours (J₁-J₅).Le contrôle positif du test est le 5-fluorouracile administré dans les mêmes conditions. Le nombre d'animaux survivants est évalué au jour J 30. Un composé est considéré comme étant actif lorsque le rapport T/C est supérieur ou égal à 125 %.

Data set [2] deals with souris consanguines DBA₂ saines. The experiment in a line: Acute toxicity, single intraperitoneal injection in healthy mice, mortality at day 7. The following applies: single i.p. injection, 50 mg/kg. It is filed as in vivo.
The next data set deals with mélanome B 16. The experiment in a line: In vivo antitumour activity, B 16 melanoma test. The arrangement: species or system souris hybrides BDF₁. The following applies: B 16 melanoma, BDF₁ mice, 1 mg/kg i.p. J1-J9.
From the text: as §1, §2, §3, §4, §5, §6
Le produit est également considéré comme toxique lorsque la variation pondérale, exprimée en grammes et calculée par la formule : Poids moyen du lot mesuré au jour 5 -poids moyen du même lot au jour 1 est égale ou inférieure à - 4 g.
Les essais sont effectués avec des souris hybrides BDF₁ inoculées avec 0,5 ml d'un homogénat de mélanome B 16 réalisé à partir de 1 g de tumeur dans 10 ml de sérum physiologique. Le composé à tester est administré pendant 9 jours (J₁-J₉).Le contrôle positif du test est le Cis-Platine administré dans les mêmes conditions. Le nombre d'animaux survivants est évalué au jour J 60.

The mark [3] stands for this setting: Mus musculus, P388, ip, P 388, CDF 1 mice, 5 mg/kg i.p. J1-J5, read-out: T/C %.
Setting [4] is: Mus musculus, P388, ip, P 388, CDF 1 mice, 10 mg/kg i.p. J1-J5, read-out: T/C %.
Setting [5] is: Mus musculus, P388, ip, P 388, CDF 1 mice, 20 mg/kg i.p. J1-J5, read-out: T/C %.
Where [6] appears, read: P 388, CDF 1 mice, 5 mg/kg i.p. J1-J5.
The mark [7] stands for this setting: P 388, CDF 1 mice, 10 mg/kg i.p. J1-J5.
The mark [8] stands for this setting: P 388, CDF 1 mice, 20 mg/kg i.p. J1-J5.
The mark [9] stands for this setting: L 1210, CDF₁ mice, 5 mg/kg i.p. J1-J5.
Setting [10] is: L 1210, CDF₁ mice, 10 mg/kg i.p. J1-J5.
The mark [11] stands for this setting: L 1210, CDF₁ mice, 20 mg/kg i.p. J1-J5.
Setting [12] is: L 1210, CDF₁ mice, 2,5 mg/kg i.p. J1-J5.
Where [13] appears, read: L 1210, CDF₁ mice, 20 mg/kg i.p. J1-J5, 20 mg/kg.
The mark [14] stands for this setting: L 1210, CDF₁ mice, 20 mg/kg i.p. J1-J5, listed as 5 Fluoro-uracile, 20 mg/kg.

Several values for one entry are separate records, joined by “and”; a condition that tells them apart may be missing. Equal entries are not always repeated.

Turning to `CCNCCCNc1nc2ccccc2c2[nH]c3ccc(OC)cc3c12` [Dérivé N°10, (éthylamino-3 propylamino)-6 méthoxy-8 11-H indolo [3,2-c]quinoléine], the IC50 in data set [1] turned out to be 580 nM.

Turning to `CN(C)CCCNc1nc2ccccc2c2c1c1cc(O)ccc1n2C` [Dérivé N°4, (diméthylamino-3 propylamino)-6 hydroxy-8 méthyl-11 11-H indolo[3,2-c]quinoléine], the IC50 in data set [1] was determined as 40 nM. The response vs control in vivo at 5 mg/kg in the data set on leucémie P 388 (setting [3]) was 133%. The response vs control in vivo at 10 mg/kg in the data set with leucémie P 388 (setting [4]) was found to be 136%. Further, the response vs control in vivo at 20 mg/kg with leucémie P 388 (setting [5]) is 137%. The response vs control in vivo at 40 mg/kg in the data set on leucémie P 388 (Mus musculus, P388, ip, P 388, CDF 1 mice, 40 mg/kg i.p. J1-J5, read-out: T/C %) was 65%. The response vs control in vivo at 2.5 mg/kg with leucémie P 388 (Mus musculus, P388, ip, P 388, CDF 1 mice, 2,5 mg/kg i.p. J1-J5, read-out: T/C %) stood at 129%. The Nombre de survivants amounted to 0 in the data set with leucémie P 388 (setting [6]); 0 in the data set on leucémie P 388 (setting [7]); 0 with leucémie P 388 (setting [8]); 0 in the data set with leucémie P 388 (P 388, CDF 1 mice, 40 mg/kg i.p. J1-J5); 0 in the data set with leucémie P 388 (P 388, CDF 1 mice, 2,5 mg/kg i.p. J1-J5); 0 in the data set with leucémie L 1210 (setting [9]). Moreover, the Nombre de survivants in the data set on leucémie L 1210 (setting [10]), in the data set on leucémie L 1210 (setting [11]) and in the data set with leucémie L 1210 (setting [12]) was 0 each time. Moreover, the “Variation pondérale en g” value in the data set with leucémie P 388 (5 mg/kg) is “+ 2,3 g”; with leucémie P 388 (10 mg/kg), “+ 1,3 g”; with leucémie P 388 (20 mg/kg), “+ 1,1 g”; in the data set with leucémie P 388 (40 mg/kg), “+ 3,8 g”. Besides, the “Jour médian de survie” value with leucémie L 1210 (setting [9]) is reported as 13,0; in the data set on leucémie L 1210 (setting [10]), 11,25; with leucémie L 1210 (setting [11]), 10,1; in the data set with leucémie L 1210 (setting [12]) it was 10,3. Further, the T/C % in the data set on leucémie L 1210 (setting [9]) worked out at 158%; in the data set on leucémie L 1210 (setting [10]), 137%; with leucémie L 1210 (setting [11]) it was 123%; with leucémie L 1210 (setting [12]), 126%.

In the case of `COc1ccc2[nH]c3c4ccccc4nc(NCCCN(C)C)c3c2c1` [Dérivé N°6, (diméthylamino-3 propylamino)-6 méthoxy-8 11-H indolo [3,2-c]quinoléine], the IC50 in data set [1] was 800 nM.

As to `COc1ccc2[nH]c3c4ccccc4nc(NCCCN4CCCCC4)c3c2c1` [Dérivé N°9, méthoxy-8 (pipéridino-3 propylamino)-6 11-H indolo [3,2-c]quinoléine], in data set [1], the IC50 was found to be 640 nM.

Consider `COc1ccc2[nH]c3c4ccccc4nc(NCCCN4CCOCC4)c3c2c1` [Dérivé N°8, méthoxy-8 (morpholino-3 propylamino)-6 11-H indolo[3,2-c]quinoléine], for which, in data set [1], the IC50 is 610 nM.

Regarding `CCN(CC)CCCNc1nc2ccccc2c2c1c1cc(OC)ccc1n2C` [Dérivé N°1, (diéthylamino-3 propylamino)-6 méthoxy-8 méthyl-11 11-H indolo[3,2-c]quinoléine], the “mortalité évaluée au septième jour après l'administration” value in data set [2] is reported as “aucune mortalité”. Further, the IC50 in data set [1] is 350 nM. The response vs control in vivo at 5 mg/kg in the data set on leucémie P 388 (setting [3]) was 142%. Also, the response vs control in vivo at 10 mg/kg in the data set with leucémie P 388 (setting [4]) worked out at 154%. For the same compound, in the data set with leucémie P 388 (setting [5]), the response vs control in vivo at 20 mg/kg is 142%. Further, the Nombre de survivants with leucémie P 388 (setting [6]), in the data set on leucémie P 388 (setting [7]) and with leucémie P 388 (setting [8]) was 0 throughout. Further, the “Variation pondérale en g” value is given as “- 0,4 g” in the data set on leucémie P 388 (5 mg/kg), “- 0,7 g” in the data set on leucémie P 388 (10 mg/kg) and “- 1,2 g” with leucémie P 388 (20 mg/kg).

Turning to `CCN(CC)CCNc1nc2ccccc2c2[nH]c3ccc(O)cc3c12` [Dérivé N°13, (diéthylamino-2 éthylamino)-6 hydroxy-8 11-H indolo[3,2-c]quinoléine], the IC50 in data set [1] was found to be 2600 nM.

As to `[NH2][Pt]([NH2])([Cl])[Cl]` [Cis-Platine, reference compound], in the data set with mélanome B 16 (1 mg/kg), the “Jour médian de survie” value was 39 and 37; the T/C % is 140% and 142% and 157%. The Nombre de survivants in the data set with mélanome B 16 (survivors at J 60) was determined as 0.

As for `COc1ccc2c(c1)c1c(NCCCN(C)C)nc3ccccc3c1n2C` [Dérivé N°2, (diméthylamino-3 propylamino)-6 méthoxy-8 méthyl-11 11-H indolo[3,2-c]quinoléine], the IC50 in data set [1] is 400 nM.

In the case of `O=c1[nH]cc(F)c(=O)[nH]1` [5 - Fluoro-uracile, 5-fluorouracile, reference compound], the Nombre de survivants in the data set with leucémie P 388 (setting [8]) and with leucémie L 1210 (setting [11]) was 0 each time. Further, the “Jour médian de survie” value in the data set with leucémie L 1210 (setting [13]) is 15,7 and 14,5; with leucémie L 1210 (setting [14]), 15,5. The T/C % is 191% and 183% in the data set on leucémie L 1210 (setting [13]); 174% in the data set with leucémie L 1210 (setting [14]).

Regarding `CCN(CC)CCNc1nc2ccccc2c2[nH]c3ccc(OC)cc3c12` [Dérivé N°7, (diéthylamino-2 éthylamino)-6 méthoxy-8 11-H indolo[3,2-c]quinoléine], the IC50 in data set [1] is 2100 nM.
